Reference: patent publication US20120315281A1, “TREATMENT OF RENAL INJURY” (THE PENN STATE RESEARCH FOUNDATION, priority 2011, published 2012)

Assays:
Type in all cases: in vivo, mouse
[1] = test system: STZ-induced diabetic mice; assay: Glomerular macrophage recruitment, Mac-2 staining, STZ-induced diabetic mice; details: arginase inhibitor 6 weeks, p<0.0001 vs vehicle-treated diabetic
Procedure: (§1) Experiments were conducted in male Ins2^Akita and their wild type (WT) littermate mice (DBA background; Jackson Laboratories) starting at 5 weeks of age until 14 weeks of age and were approved by the Pennsylvania State University College of Medicine Institutional Animal Care and Use Committee (PSU IACUC). The Ins2^Akita mice were recommended by the Animal Models of Diabetes Complications Consortium as an optimal model of diabetic nephropathy, and the mice developed hyperglycemia at 3 weeks of age. […]
(§2) BEC, a selective arginase antagonist (2.3 mg/kg/day, Cayman Chemical, Ann Arbor, Mich., USA), or vehicle (phosphate-buffered saline) was administered by continuous subcutaneous infusion for 9 weeks (in Ins2^Akita experiments) or for 6 wks (in STZ DBA mice experiments) via a mini-osmotic pump (Alzet; Durect Corporation, Palo Alto, Calif., USA) as described in CIRCULATION RESEARCH, 102(8):923-32, Apr. […] The condition of mice and body weight were monitored daily following the pump implantation.
Immunohistochemistry for macrophages was performed in mice using rat anti-mouse Mac-2 monoclonal antibody; clone M3/38 (Cedarlane, Burlington, N.C., US) on paraffin sections. […] The number of glomerular macrophages were counted in twenty glomeruli per section (number of macrophages in glomeruli divided by the number of glomeruli) in blinded fashion under 40× magnification and averaged.

Ins2^Akita mice = assay: 24-hr urinary albumin excretion (UAE) in Ins2^Akita mice; details: BEC 2.3 mg/kg/day 9 weeks, at 14 weeks of age, vs vehicle, FIG. 1
Procedure: The Ins2^Akita and their wild type (WT) littermate mice were treated with the arginase-specific inhibitor S-(2-Boronoethyl)-L-cysteine (BEC) (2.3 mg/kg/day) or vehicle via osmotic minipump for 9 weeks. Urine was collected for measurement of UAE before treatment (at 5 weeks of age) and after treatment (at 14 weeks of age). In FIG. 1, the open bars are vehicle treated groups and filled bars are arginase inhibitor treated groups. Data are presented as mean±SEM. […]
as §2
(§3) Urinary albumin excretion (UAE) was measured by ELISA using Albuwell M (Exocell, Philadelphia, Pa.) as described previously. Blood urea nitrogen (BUN) was measured using (VITROS DT60II chemistry slides; Ortho-Clinical Diagnostics, Rochester, N.Y.). Body composition was determined using LF90 Minispec Time Domain Nuclear Magnetic Resonance Spectrometer (Bruker Optics, Billerica Mass.). […]

arginase 2 mRNA = assay: Kidney arginase 2 mRNA expression by RT-PCR in Ins2^Akita mice; details: whole kidney RNA, Ins2^Akita mice at 14 weeks of age; normalized to GAPDH, relative to control; FIG. 5
Procedure: FIGS. 5A and 5B show the effect of arginase inhibition on arginase 2 mRNA expression in Ins2^Akita mice. Real-time polymerase chain reaction (RT-PCR) was performed on whole mouse kidney total RNA isolated at 14 weeks of age. […] In FIG. 5B, expression of arginase 2 mRNA was normalized to GAPDH and data were calculated as expression relative to control.
Total RNA was extracted from mouse kidneys using RNeasy Mini Kit (Qiagen, Gumbh, Hilden, Germany). Single-strand cDNA was synthesized using iScript cDNA Synthesis Kits (Bio-Rad, Hercules, Calif.) for two-step real-time polymerase chain reaction (RT-PCR). Gene-specific primers for ARG1 and ARG2 were designed using Beacon Designer Probe/Primer Design Software (Premier Biosoft International, Palo Alto, Calif.). Specificity of the PCR products was verified by melting curve analysis. Quantitative real-time PCR was performed using a Bio-Rad CFX96 system (Hercules, Calif.). Reactions were performed in duplicate, and threshold cycle numbers were averaged. Samples were calculated with normalization to GAPDH.
RT-PCR was performed on whole mouse kidney total RNA isolated at 14 weeks of age. […] In FIG. 5B, expression of arginase 2 mRNA was normalized to GAPDH and data were calculated as expression relative to control.

[2] = test system: Ins2^Akita and their wild type littermate mice; assay: Blood urea nitrogen (BUN) in Ins2^Akita and wild type littermate mice; details: BEC 2.3 mg/kg/day 9 weeks, 14-week of age, mean ± SEM
Procedure: as §1, §2, §3

[3] = test system: STZ-induced diabetic mice (DBA background); assay: Renal histological changes, PAS staining, STZ-induced diabetic mice (DBA background)
Source text: Sections were stained with Periodic acid-Schiff (PAS) and all glomeruli were examined at 40×. Images were taken with 100× (oil) objective with a total magnification of 1000×. […] Adjacent tubular basement membranes stain PAS positive as well.
Kidneys from mice were fixed in 4% paraformaldehyde, embedded in paraffin, and 3-μm sections were cut. Sections were stained with Periodic acid-Schiff (PAS) stain and all glomeruli were examined at 40× (TKC) in a masked fashion. All images were obtained with an Olympus BX51 microscope and DP71 digital camera using MicroSuite Basic 2.6 imaging software. Images were taken with 100× (oil) objective with a total magnification of 1000×. Semiquantitative scores (0-4+) were assigned based on the masked reading, as previously described. Each glomerulus on a single section was graded from 0 to 4+, where 0 represents no lesion, and 1, 2, 3, and 4+ represent mesangial matrix expansion or sclerosis, involving […] of the glomerular tuft area, respectively.

[4] = test system: Ins2^Akita and their wild type littermate mice; assay: Glomerular macrophage recruitment, Mac-2 immunohistochemistry, Ins2^Akita experiment; details: 14 weeks of age
Procedure: FIGS. 2A-2D show the effect of arginase inhibition on macrophage recruitment in Ins2^Akita mice using immunohistochemistry.
Immunohistochemistry for macrophages was performed in mice using rat anti-mouse Mac-2 monoclonal antibody; clone M3/38 (Cedarlane, Burlington, N.C., US) on paraffin sections. Sections were incubated with primary antibody (50 μg/ml) followed by a biotinylated goat IgG anti-rat (Vector Laboratories, Burlingame, Calif.) secondary antibody according to the manufacturer's protocol. Sections were viewed using an Olympus BX51 microscope and DP71 digital camera using MicroSuite Basic 2.6 imaging software. Images were taken with 100× (oil) objective with a total magnification of 1000×. The number of glomerular macrophages were counted in twenty glomeruli per section (number of macrophages in glomeruli divided by the number of glomeruli) in blinded fashion under 40× magnification and averaged.
To determine whether arginases are critical for kidney macrophage infiltration in diabetic nephropathy, the distribution and quantitation of macrophages in kidneys by immunohistochemistry (Mac-2 positive macrophages) were analyzed. […]

[5] = test system: Ins2^Akita and their wild type littermate mice; assay: Characteristics of Ins2^Akita and wild type littermate mice (glucose, body weight, kidney weight, body composition) with or without arginase inhibitor; details: BEC 2.3 mg/kg/day 9 weeks, 14-week of age, mean ± SEM
Procedure: Experiments were conducted in male Ins2^Akita and their wild type (WT) littermate mice (DBA background; Jackson Laboratories) starting at 5 weeks of age until 14 weeks of age and were approved by the Pennsylvania State University College of Medicine Institutional Animal Care and Use Committee (PSU IACUC). The Ins2^Akita mice were recommended by the Animal Models of Diabetes Complications Consortium as an optimal model of diabetic nephropathy, and the mice developed hyperglycemia at 3 weeks of age. Additional experiments were conducted in male 6-week-old mice (DBA background; Jackson Laboratories), arginase-2 (Arg2) wild type […] mice on C57B1/6 background weighing 20-22 g and were approved by the PSU IACUC. After an overnight fast, animals were given multiple low doses of vehicle or STZ (Sigma, St. Louis, Mo.; 50 mg/kg body wt dissolved in lactated Ringers solution) via intraperitoneal injection.
BEC, a selective arginase antagonist (2.3 mg/kg/day, Cayman Chemical, Ann Arbor, Mich., USA), or vehicle (phosphate-buffered saline) was administered by continuous subcutaneous infusion for 9 weeks (in Ins2^Akita experiments) or for 6 wks (in STZ DBA mice experiments) via a mini-osmotic pump (Alzet; Durect Corporation, Palo Alto, Calif., USA) as described in CIRCULATION RESEARCH, 102(8):923-32, Apr. 25, 2008. The osmotic pump was incubated in phosphate buffer saline (PBS) for 60-h at 37° C. prior to implantation and was implanted dorsally between shoulders. The condition of mice and body weight were monitored daily following the pump implantation.
as §3

[6] = test system: STZ-induced diabetic mice (DBA background); assay: 24-hr urinary albumin excretion in STZ-induced diabetic mice (DBA background); details: BEC 2.3 mg/kg/day 6 weeks, vs vehicle-treated diabetic, FIG. 6
Procedure: After an overnight fast, animals were given multiple low doses of vehicle or STZ (Sigma, St. Louis, Mo.; 50 mg/kg body wt dissolved in lactated Ringers solution) via IP injection. Mice were treated with the arginase-specific inhibitor BEC (2.3 mg/kg/day) or vehicle via osmotic minipump for 6 weeks. Urine was collected for measurement of UAE after 6 weeks. Data are presented as mean±SEM.
Experiments were conducted in male Ins2^Akita and their wild type (WT) littermate mice (DBA background; Jackson Laboratories) starting at 5 weeks of age until 14 weeks of age and were approved by the Pennsylvania State University College of Medicine Institutional Animal Care and Use Committee (PSU IACUC). […]
as §2
Urinary albumin excretion (UAE) was measured by ELISA using Albuwell M (Exocell, Philadelphia, Pa.) as described previously. […]

[7] = test system: eNOS deficient and their wild type (WT) littermate mice; assay: Urinary albumin excretion in STZ-diabetic eNOS deficient and wild type littermate mice; details: BEC 2.3 mg/kg/day s.c. infusion 6 weeks, FIG. 14
Procedure: Experiments were conducted using multiple low doses of STZ (50 mg/kg body weight for 5 days). Arginase inhibition using BEC (2.3 mg/kg/day) or vehicle was administered by continuous subcutaneous infusion for 6 weeks via a mini-osmotic pump. Data is shown for 6 weeks after STZ-induced diabetes.
Urinary albumin excretion (UAE) was measured by ELISA using Albuwell M (Exocell, Philadelphia, Pa.) as described previously. Blood urea nitrogen (BUN) was measured using (VITROS DT60II chemistry slides; Ortho-Clinical Diagnostics, Rochester, N.Y.). Body composition was determined using LF90 Minispec Time Domain Nuclear Magnetic Resonance Spectrometer (Bruker Optics, Billerica Mass.).
eNOS deficient mice are recommended by the Animal Models of Diabetes Complications Consortium (AMDCC) as an optimal model of diabetic nephropathy. Experiments were conducted in male 6-week-old eNOS deficient and their wild type (WT) littermate mice using multiple low doses of STZ (50 mg/kg body weight for 5 days). Arginase inhibition using BEC (2.3 mg/kg/day) or vehicle was administered by continuous subcutaneous infusion for 6 weeks via a mini-osmotic pump. Renal function was monitored throughout the study.

[8] = control (wild type littermate) mice

Compound: N[C@@H](CSCCB(O)O)C(=O)O [BEC, S-(2-Boronoethyl)-L-cysteine]
- glomerular macrophage recruitment (Mac-2 staining) [1]: 1.2±0.06 macrophages/glomerulus
- Albuminuria (urinary albumin excretion) (Ins2^Akita mice): significantly reduced
- increase in arginase 2 mRNA expression (arginase 2 mRNA): ~1.5 fold
- BUN ([2]; Ins2^Akita mice): 28 ± 3
- BUN [2, 8]: 28 ± 3
- PAS positive material, share of the mesangial matrix ([3]; representative PAS section from arginase inhibitor treated STZ mouse, FIG. 7C): < 25%
- glomerular changes (PAS, glomerular cellularity and mesangial expansion) score ([3]; semiquantitative score 0-4+, STZ-induced diabetic mice after 6 weeks, p<0.05 vs vehicle-treated STZ): 1.6±0.08
- glomerular macrophage recruitment (Mac-2 positive) ([4]; Ins2^Akita mice treated with arginase inhibitor, p<0.0001 vs vehicle-treated Ins2^Akita, FIG. 2D): 0.9±0.14 macrophages/glomerulus
- glomerular macrophage recruitment (Mac-2 positive) ([4]; control mice treated with arginase inhibitor, FIG. 2C): 0.29±0.03 macrophages/glomerulus
- Kidney weight ([5]; Ins2^Akita mice): 269 ± 10 mg
- KW/BW (kidney weight to body weight ratio) [5, 8]: 8.1 ± 0.1 mg/g
- Kidney weight [5, 8]: 262 ± 4 mg
- albuminuria (24-hr UAE) [6]: significantly reduced
- albuminuria (UAE) ([7]; diabetic WT mice (STZ), vs vehicle): significantly reduced
- UAE ([7]; diabetic eNOS deficient mice (STZ), vs vehicle treated diabetic mice): failed to reduce
